According to a compilation of properties of binary mixtures (doi:10.1016/j.molliq.2017.06.029):

Test: xn = mol fraction of the nth substance listed
Details: 100 kPa

OCc1ccco1 + CC(=O)[O-].CC[n+]1ccn(C)c1
speed of sound [m/s]
Details | 298.15 K | 303.15 K | 308.15 K | 313.15 K | 318.15 K
x2 = 0 | 1447 | 1431 | 1413 | 1394 | 1375
x2 = 0.0572 | 1487 | 1471 | 1452 | 1430 | –
x2 = 0.1058 | 1522 | 1506 | 1487 | 1465 | 1433
x2 = 0.1534 | 1548 | 1532 | – | 1490 | –
x2 = 0.2087 | 1573 | 1557 | 1540 | 1519 | –
x2 = 0.3068 | – | – | 1577 | – | 1534
x2 = 0.408 | 1637 | 1623 | 1609 | 1595 | 1578
x2 = 0.5063 | – | – | 1633 | 1620 | 1606
x2 = 0.5513 | 1670 | 1656 | 1643 | 1629 | –
x2 = 0.6031 | 1680 | 1666 | – | – | 1627
x2 = 0.7053 | 1696 | 1683 | – | 1657 | –
x2 = 0.8045 | 1711 | – | 1685 | 1673 | 1660
x2 = 0.8441 | 1716 | 1704 | 1691 | 1678 | 1666
x2 = 0.902 | 1723 | – | 1699 | 1686 | 1674

CC(=O)[O-].CC[n+]1ccn(C)c1 + OCc1ccco1
x1 = 1
Details | speed of sound [m/s]
298.15 K | 1735
303.15 K | 1722
308.15 K | 1710
313.15 K | 1698
318.15 K | 1686
